The subject of series [1] is Rattus norvegicus. Kind of series: In vivo hypoglycemic activity in Sprague-Dawley rat assessed as urinary […] glucose level per 200g of animal body weight measured for 0 to 4 hrs at 5 mL/kg, po (reference value: 0.26 +/- 0.04 mg). Format: functional, Urine.
Series [2] deals with Rattus norvegicus. Kind of series: In vivo hypoglycemic activity in Sprague-Dawley rat assessed as urinary […] glucose level per 200g of animal body weight measured for 4 to 8 hrs at 5 mL/kg, po (reference value: 0.14 +/- 0.03 mg). Format: functional, Urine.
Series [3] deals with Rattus norvegicus. Kind of series: In vivo hypoglycemic activity in Sprague-Dawley rat assessed as urinary […] glucose level per 200g of animal body weight measured for 8 to 12 hrs at 5 mL/kg, po (reference value: 0.21 +/- 0.01 mg). Format: functional, Urine.
Series [4] concerns Rattus norvegicus. Briefly: In vivo hypoglycemic activity in Sprague-Dawley rat assessed as urinary […] glucose level per 200g of animal body weight measured for 12 to 24 hrs at 5 mL/kg, po (reference value: 1.45 +/- 0.28 mg). It is filed as functional, Urine.
Series [5] has as its system Rattus norvegicus. Kind of series: In vivo hypoglycemic activity in Sprague-Dawley rat assessed as urinary […] glucose level per 200g of animal body weight measured for 0 to 24 hrs at 5 mL/kg, po (reference value: 2.03 +/- 0.34 mg). It is filed as functional, Urine.
The nature of series [6]: Octanol-phosphate buffer saline partition coefficient, logP of the compound measured after 24 hrs by HPLC method. It is filed as physicochemical.
For series [7], the system named is Rattus norvegicus. Briefly: In vivo hypoglycemic activity in Sprague-Dawley rat assessed as reduction in urinary […] glucose level per 200g of animal body weight measured for 0 to 24 hrs at 5 mL/kg, po. It is filed as functional, Urine. Also on record: scale not given: the % may be the effect or the level left.
Series [8] can be described thus: (§1) Metabolic stability in rat liver homogenate assessed as compound hydrolysis at 10 uM after 8 hrs. Format: ADME, tissue-based. The note with it: liver homogenate, read-out: Drug degradation.
For series [9], the system named is Rattus norvegicus. Briefly: In vivo hypoglycemic activity in Sprague-Dawley rat assessed as urinary […] glucose level per 200g of animal body weight measured for 0 to 6 hrs at 5 mL/kg, po. It is filed as functional, Urine.
Series [10] concerns Rattus norvegicus. Kind of series: In vivo hypoglycemic activity in Sprague-Dawley rat assessed as urinary […] glucose level per 200g of animal body weight measured for 6 to 24 hrs at 5 mL/kg, po. It is filed as functional, Urine.
The next series has as its system Liver. Described as §1. The note with it: tissue homogenate, 8 h, 10 µM. It is filed as ADME, tissue-based.

These results are taken from ChEMBL document CHEMBL3797116, “Modification on the O-glucoside of Sergliflozin-A: A new strategy for SGLT2 inhibitor design” (Bioorg Med Chem Lett, 2016).

Regarding `COc1ccc(Cc2ccccc2O[C@@H]2O[C@H](CO)[C@@H](O)C[C@H]2O)cc1`, the Activity with Rattus norvegicus [1] is 0.36 mg; with Rattus norvegicus [2], 0.23 mg; with Rattus norvegicus [3], 0.21 mg; with Rattus norvegicus [4], 0.44 mg; in the series on Rattus norvegicus [5], 1.24 mg.

Broadly, the logP is a log measure of how a compound divides between an organic and an aqueous phase. With `COc1ccc(Cc2ccccc2O[C@@H]2O[C@H](CO)[C@@H](OC)[C@H](O)[C@H]2O)cc1`, the Activity with Rattus norvegicus [1] stood at 102.46 mg; in the series with Rattus norvegicus [2], 58.68 mg; in the series with Rattus norvegicus [3], 11.01 mg; in the series with Rattus norvegicus [4], 0.78 mg; in the series on Rattus norvegicus [5], 172.94 mg; in the series with Rattus norvegicus [7] it was 73%. In series [6], this molecule yielded a log partition coefficient (logP) at 24 h of 1.83.

As to `COc1ccc(Cc2ccccc2O[C@@H]2O[C@H](CO)[C@@H](O)[C@H](OC)[C@H]2O)cc1`, the Activity is listed as 13.67 mg in the series with Rattus norvegicus [1]; 4.11 mg with Rattus norvegicus [2]; 0.65 mg in the series with Rattus norvegicus [3]; 0.24 mg in the series with Rattus norvegicus [4]; 18.67 mg with Rattus norvegicus [5].

As for `COc1ccc(Cc2ccccc2O[C@@H]2O[C@H](CO)[C@@H](O)[C@H](O)[C@H]2O)cc1` [SERGLIFLOZIN A], the Activity is listed as 126.99 mg in the series on Rattus norvegicus [1]; 34.8 mg in the series on Rattus norvegicus [2]; 33.8 mg in the series with Rattus norvegicus [3]; 39.44 mg with Rattus norvegicus [4]; 235.03 mg with Rattus norvegicus [5]. The molecule also returned a logP at 24 h in series [6] of 1.32.

`COC[C@H]1O[C@@H](Oc2ccccc2Cc2ccc(OC)cc2)[C@H](O)[C@@H](O)[C@@H]1O`: the Activity in the series with Rattus norvegicus [1] was 61.23 mg; in the series with Rattus norvegicus [2], 4.11 mg; with Rattus norvegicus [3], 7.19 mg; in the series with Rattus norvegicus [4], 0.76 mg; with Rattus norvegicus [5] it was 73.29 mg; in the series with Rattus norvegicus [7], 31%.

For the molecule `Cc1cc(=O)oc2cc(O[C@@H]3O[C@H](CO)[C@@H](O)[C@H](O)[C@H]3O)ccc12`, the metabolised at 8 h, 10 µM in series [8] is more than 80%.

`COc1ccc(Cc2ccccc2O[C@@H]2O[C@H](CO)[C@@H](O)[C@H](O)[C@H]2F)cc1`: the Activity with Rattus norvegicus [5] came out at 16 mg; in the series on Rattus norvegicus [9], 4.9 mg; in the series with Rattus norvegicus [10], 11 mg.

Regarding `COc1ccc(Cc2ccccc2O[C@@H]2O[C@H](C)[C@@H](O)[C@H](O)[C@H]2O)cc1`, the Activity in the series on Rattus norvegicus [1] was determined as 33.36 mg; with Rattus norvegicus [2], 0.69 mg; with Rattus norvegicus [3], 0.07 mg; in the series on Rattus norvegicus [4] it was 0.8 mg; in the series with Rattus norvegicus [5], 34.91 mg.

Turning to `COc1ccc(Cc2ccccc2O[C@@H]2O[C@H](CF)[C@@H](O)[C@H](O)[C@H]2O)cc1`, the Activity with Rattus norvegicus [1] came out at 2.34 mg; in the series on Rattus norvegicus [2], 1.03 mg; in the series on Rattus norvegicus [3], 0.13 mg; in the series with Rattus norvegicus [4], 1.02 mg; in the series with Rattus norvegicus [5], 4.52 mg.

In the case of `CO[C@H]1[C@H](O)[C@@H](O)[C@H](Oc2ccc3oc(=O)cc(C)c3c2)O[C@@H]1CO`, the Stability result in the series with Liver is on record as “Stable”.

Take `COc1ccc(Cc2ccccc2O[C@@H]2O[C@H](CO)C[C@H](O)[C@H]2O)cc1`: the Activity is recorded as 8.21 mg in the series on Rattus norvegicus [1]; 0.68 mg in the series with Rattus norvegicus [2]; 0.42 mg with Rattus norvegicus [3]; 1.73 mg with Rattus norvegicus [4]; 11.05 mg in the series on Rattus norvegicus [5].

As for `COc1ccc(Cc2ccccc2O[C@@H]2O[C@H](CO)[C@@H](O)[C@H](O)[C@H]2OC)cc1`, the Activity in the series on Rattus norvegicus [1] is 0.11 mg; in the series with Rattus norvegicus [2], 0.03 mg; in the series with Rattus norvegicus [3], 0.02 mg; in the series on Rattus norvegicus [4], 0.11 mg; in the series with Rattus norvegicus [5] it was 0.27 mg.
